“Also recorded” adds a separate entry of the source. Structures can show the parent of a compound that is named as a salt.
Experiments:
[1] = test system: biofilm bacteria (strains 4, 9, 14, 20, 27, 28); experiment: Effect of pharmaceuticals on adhesion of bacteria to plastic / biofilm formation on NTC and TC plates; format: cell-based, marine bacteria isolated from Singapore fouling communities
Protocol: Commercial forms of pharmaceuticals were used as previously described. […] These samples were sonicated for at least 1 min and these fine suspensions were used as initial stock solutions.
For studies of bacterial adhesion, the pharmaceuticals were first sterilized by soaking in absolute alcohol (Merck) for half an hour. Ethanol was removed by air-drying with air passed through 0.25 μm pore size syringe filter (Sartorius, Germany). Stock solutions were concentrations of 100 μg ml−1 in SDI.
The effect of pharmaceuticals on bacterial adhesion was analyzed using a modified microplate method adapted from Shea and Williamson (1990). This method employs a combination of staining attached bacteria with crystal violet, releasing the stain with sodium desoxycholate, and measuring the resulting absorbance of the crystal violet.
Detailed results for six selected strains are presented here: strains 4, 9, 14, 20, 27, 28. The bacterial strains were grown in Marine Broth (Pronadisa, Spain) overnight, in the dark, at 28° C. on a rotary shaker (150 rpm) in 5 ml centrifuge tubes (Falcon). Cells were harvested by centrifugation (1500×g, 10 min) and resuspended in sterile seawater (SSW). SSW was prepared by filtering seawater through a 0.2 μm pore size filter (Sartorius) followed by autoclaving. The cells were centrifuged and resuspended once more in SSW. The concentration of resuspended cells was adjusted to A600=1.0 using a spectrophotometer (Beckman DU530, USA).
Flat bottom 96 well polystyrene (hydrophobic, Falcon 351172) (=NTC) and tissue-culture treated polystyrene (hydrophilic, Falcon 353072) (=TC) microplates were used in the analyses. Each test was performed in triplicate. Two sets of experiments were conducted. […] For the control and blank wells, 25 ul of SDI were added. For wells containing pharmaceuticals, 25 ul of the respective pharmaceutical at a concentration of 100 ug ml−1 were added. This was immediately followed by the addition of 75 ul of bacterial suspension. To blanks were added 75 ul of SSW.
The bacterial cells in suspension were allowed to attach for 2 h at 28° C. Unattached cells were removed by aspiration using a plate washer (Tecan, Austria) and wells were rinsed three times with 200 ul of SSW each time. The attached cells were stained with 200 ul of crystal violet solution (0.1% w/v in deionized water) in each well for 5 min. After removing the stain using the plate washer, the wells were rinsed twice with 300 ul of SDI each time. Sodium desoxycholate (200 ul) solution (2% w/v in deionized water) was added to each well to extract the crystal violet from the attached stained cells for 10 min. The absorbance of the crystal violet was read at 590 nm using a microplate reader (Sunrise, Tecan, Austria).
Results of the adhesion assay were obtained by the difference in absorbance readings between wells containing bacterial cells and the mean of absorbance of those containing the SSW only. The effect of the pharmaceuticals on bacterial adhesion was determined by the examining the differences in absorbance between the wells containing the pharmaceuticals+bacteria and the bacteria. The significance was compared using T-test.

[2] = test system: marine bacteria (26 strains); experiment: Disk inhibition assay; format: cell-based, marine bacteria isolated from Singapore fouling communities
Method in brief: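 Tablets or capsule powders suspended in sterile water at 2 mg ml^−1 and loaded onto disks; antibiotic discs (Amp, Ery, Str, Tet) served as comparison. Disks placed on swabbed lawns on Marine Agar, incubated overnight in the dark at 30° C. Zone of clearing diameter measured by calipers; three replicates on three occasions.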

barnacle nauplii = experiment: Toxicity of drugs under different light conditions and over time (stability in seawater); format: in vivo, Balanus amphitrite; conditions: 25 ug ml^−1 seawater suspension
Protocol: Preliminary experiments were carried out to examine the chemical stability of the drugs. 25 ug ml^−1 seawater suspensions of the drugs were prepared, in 3 replicates per condition, 3 replicate tubes containing 15 ml per test tube per prepared for each treatment type. The treatments consisted of: • i. Dark condition: tubes were wrapped in aluminium foil and kept in the dark at all times • ii. 12L:12D condition, where the tubes were subject incubated in a plant growth chamber with light regime of 12 hours light and 12 hours dark. • iii. UV treated tubes were subject to UV for half an hour. […] Sets (1) & (2) were tested at week 0, 1, 2 and after 4 weeks. “UV” set is only assayed after UV treatment. […] Effect of UV

[3] = crude rank, best (1) to worst (8)

CN1CCN(CCCN2c3ccccc3Sc3ccc(C(F)(F)F)cc32)CC1 [TFZ, Trifluoperazine hydrochloride]
Effect on formation of bacterial biofilms on NTC and TC plates ([1]; 25 ug ml−1, NTC = untreated polystyrene, TC = tissue-culture treated, strains 4, 9, 14, 20, 27, 28, hydrochloride): reduced biofilm formation on NTC plates; also recorded: active against strain 4, 14, 27 on NTC but no reduction of biofilms was observed on the TC plates
Prevention of formation of biofilm [1, 3]: 4
Number of strains inhibited out of 26 strains ([2]; 25 μg per disc): 22
Strains showing no inhibition (of 26) ([2]; 50 μg per disc): 2
Antibiotic activity against marine bacteria ([2]; 25 or 50 μg per disc, in words): strongest activity
Antibiotic activity against marine bacteria [2, 3]: 3
zone of inhibition at 25 µg/disc ([2]; strain 1 (Rhodovulum), 25 μg per disc): < 5 mm
zone of inhibition at 50 µg/disc ([2]; strain 1 (Rhodovulum), 50 μg per disc): < 5 mm
zone of inhibition at 25 µg/disc ([2]; strain 2 (Erythrobacter), 25 μg per disc): < 5 mm
zone of inhibition at 50 µg/disc ([2]; strain 2 (Erythrobacter), 50 μg per disc): 10 to 19 mm
zone of inhibition at 25 µg/disc ([2]; strain 3 (Erythrobacter), 25 μg per disc): 10 to 19 mm
zone of inhibition at 50 µg/disc ([2]; strain 3 (Erythrobacter), 50 μg per disc): 10 to 19 mm
zone of inhibition at 25 µg/disc ([2]; strain 4 (Bacillus), 25 μg per disc): 10 to 19 mm
zone of inhibition at 50 µg/disc ([2]; strain 4 (Bacillus), 50 μg per disc): 10 to 19 mm
zone of inhibition at 25 µg/disc ([2]; strain 6 (Vibrio), 25 μg per disc): 5 to 9 mm
zone of inhibition at 50 µg/disc ([2]; strain 6 (Vibrio), 50 μg per disc): 5 to 9 mm
zone of inhibition at 25 µg/disc ([2]; strain 7 (Vibrio), 25 μg per disc): < 5 mm
zone of inhibition at 50 µg/disc ([2]; strain 7 (Vibrio), 50 μg per disc): 5 to 9 mm
zone of inhibition at 25 µg/disc ([2]; strain 8 (Bacillus), 25 μg per disc): 5 to 9 mm
zone of inhibition at 50 µg/disc ([2]; strain 8 (Bacillus), 50 μg per disc): 10 to 19 mm
zone of inhibition at 25 µg/disc ([2]; strain 9 (Bacillus), 25 μg per disc): 10 to 19 mm
zone of inhibition at 50 µg/disc ([2]; strain 9 (Bacillus), 50 μg per disc): 10 to 19 mm
zone of inhibition at 25 µg/disc ([2]; strain 10 (Halobacillus), 25 μg per disc): 10 to 19 mm
zone of inhibition at 50 µg/disc ([2]; strain 10 (Halobacillus), 50 μg per disc): 10 to 19 mm
zone of inhibition at 25 µg/disc ([2]; strain 11 (Pseudomonas), 25 μg per disc): 10 to 19 mm
zone of inhibition at 50 µg/disc ([2]; strain 11 (Pseudomonas), 50 μg per disc): 10 to 19 mm
zone of inhibition at 25 µg/disc ([2]; strain 12 (Gordonia), 25 μg per disc): 10 to 19 mm
zone of inhibition at 50 µg/disc ([2]; strain 12 (Gordonia), 50 μg per disc): 10 to 19 mm
zone of inhibition at 25 µg/disc ([2]; strain 13 (Bacillus), 25 μg per disc): 10 to 19 mm
zone of inhibition at 50 µg/disc ([2]; strain 13 (Bacillus), 50 μg per disc): 10 to 19 mm
zone of inhibition at 25 µg/disc ([2]; strain 14 (Vibrio), 25 μg per disc): < 5 mm
zone of inhibition at 50 µg/disc ([2]; strain 14 (Vibrio), 50 μg per disc): < 5 mm
zone of inhibition at 25 µg/disc ([2]; strain 16 (Pseudoalteromonas), 25 μg per disc): 5 to 9 mm
zone of inhibition at 50 µg/disc ([2]; strain 16 (Pseudoalteromonas), 50 μg per disc): 10 to 19 mm
zone of inhibition at 25 µg/disc ([2]; strain 17 (Gordonia), 25 μg per disc): 5 to 9 mm
zone of inhibition at 50 µg/disc ([2]; strain 17 (Gordonia), 50 μg per disc): 10 to 19 mm
zone of inhibition at 25 µg/disc ([2]; strain 18 (Microbacterium), 25 μg per disc): 10 to 19 mm
zone of inhibition at 50 µg/disc ([2]; strain 18 (Microbacterium), 50 μg per disc): 10 to 19 mm
zone of inhibition at 25 µg/disc ([2]; strain 19 (Erythrobacter), 25 μg per disc): 10 to 19 mm
zone of inhibition at 50 µg/disc ([2]; strain 19 (Erythrobacter), 50 μg per disc): 10 to 19 mm
zone of inhibition at 25 µg/disc ([2]; strain 20, 25 μg per disc): 10 to 19 mm
zone of inhibition at 50 µg/disc ([2]; strain 20, 50 μg per disc): 20 to 29 mm
zone of inhibition at 25 µg/disc ([2]; strain 21, 25 μg per disc): 5 to 9 mm
zone of inhibition at 50 µg/disc ([2]; strain 21, 50 μg per disc): 5 to 9 mm
zone of inhibition at 25 µg/disc ([2]; strain 22, 25 μg per disc): 10 to 19 mm
zone of inhibition at 50 µg/disc ([2]; strain 22, 50 μg per disc): 20 to 29 mm
zone of inhibition at 25 µg/disc ([2]; strain 24, 25 μg per disc): 10 to 19 mm
zone of inhibition at 50 µg/disc ([2]; strain 24, 50 μg per disc): 10 to 19 mm
zone of inhibition at 25 µg/disc ([2]; strain 26, 25 μg per disc): 5 to 9 mm
zone of inhibition at 50 µg/disc ([2]; strain 26, 50 μg per disc): 10 to 19 mm
zone of inhibition at 25 µg/disc ([2]; strain 27, 25 μg per disc): 10 to 19 mm
zone of inhibition at 50 µg/disc ([2]; strain 27, 50 μg per disc): 10 to 19 mm
zone of inhibition at 25 µg/disc ([2]; strain 28, 25 μg per disc): 5 to 9 mm
zone of inhibition at 50 µg/disc ([2]; strain 28, 50 μg per disc): 10 to 19 mm
zone of inhibition at 25 µg/disc ([2]; strain 29, 25 μg per disc): 10 to 19 mm
zone of inhibition at 50 µg/disc ([2]; strain 29, 50 μg per disc): 10 to 19 mm
zone of inhibition at 25 µg/disc ([2]; strain 30, 25 μg per disc): 10 to 19 mm
zone of inhibition at 50 µg/disc ([2]; strain 30, 50 μg per disc): 10 to 19 mm
Change in toxicity on ageing in seawater, 12L:12D condition (barnacle nauplii; 12 h light and 12 h dark, after 4 weeks): marked decrease in toxicity
Effect of UV on drug toxicity to barnacle nauplii (barnacle nauplii; UV for half an hour): some increase in toxicity
Change in toxicity on ageing in seawater, dark condition (barnacle nauplii; after 4 weeks): appreciable decrease in toxicity
